Experiments:
[1] = biological target: T1, hDGKalpha(1-735)-N-His (DGKA) (Homo sapiens, UniProt P23743); test: In vitro DGK inhibition assay (ADP-Glo, in house), DGK alpha; type: biochemical; details: isomer A; 4 nM DGK α, 25 μM ATP, 125 μM DLG in liposomes, 1 hour reaction; read-out: DGKalpha ADP Glo assay IC50
T1 construct: hDGKalpha(1-735)-N-His; His (N)
Experimental: DGK α and ζ kinase use ATP to phosphorylate the substrate 1,2-dilauroyl-sn-glycerol (DLG, incorporated in the liposomes). ATP is converted to ADP as a result of this enzymatic reaction.
After the kinase reaction, an ATP-depletion reagent is added to terminate the kinase reaction and deplete any remaining ATP, leaving only ADP. Second, a detection reagent is added to simultaneously convert ADP to ATP and allow the newly synthesized ATP to be converted to light using a coupled luciferase/luciferin reaction.
Full length DGKA and Z were expressed in Sf21 insect cells by infecting the cells with the baculovirus stock at MOI of 2. Purification of both enzymes was performed as previously described by Takahashi et al., PeerJ, 2018 (Takahashi, D.; Sakane, F. Expression and purification of human diacylglycerolkinase alpha from baculovirus-infected insect cells for structural studies. PeerJ2018, 6, No. e5449).
A concentrated liposome solution was prepared in assay buffer without DTT and BSA: 2 mM of DLG in 21 mM of total liposome (2 mM DLG/8 mM PS/11 mM PC). The reaction mixtures contain the assay buffer with a final DLG concentration of 125 μM ATP concentrations of 25 μM (for DGKA assay) or 50 μM (for DGKZ assay). The reactions were started by addition of DGK α and ζ kinases at 4 nM and 2 nM final concentrations, respectively. After 1 hour reaction, the amount of ADP formed was detected with the ADP-Glo kinase assay (Promega) according to the manufacturer instructions. Compounds were added in 11I-points dose response, starting at 10 mM, 1:3 dilutions, with a final DMSO concentration of […]. The multidrop combi was used as a liquid handler and luminescence was read with 0.5 s by the envision reader (PE).

[2] = system: primary human T-cells; test: IL2 secretion measurements in CD3-stimulated T-cells; type: cell-based; details: Homo sapiens, T-cell, isomer A; for EC50: CD3 antibody-stimulated T-cells, IL2 in supernatant after 24 hours, read-out: Tcell IL2 CD3 EC50; for Emax: CD3 condition, 24 hours, 20 μM reference compound A1 = 100%, DMSO neutral control, read-out: Emax IL2 (% activation)
Experimental: As readouts for T-cell activation, IL2 secretion after 24 hours and proliferation after 5 days was measured. Increases in IL2 secretion and proliferation upon compound treatment were assessed as the % of the maximum of reference compound A1. WO 2016/139181 discloses reference compound A1 as example 70. As a counter screen and to make sure that no unwanted TCR-independent activation was triggered, PBS conditions were run for all compounds.
Expanded primary human T-cells were thawed and cultured in RPMI 1640 (Gibco, #61870-010)+5% human serum (HS, Sigma, #H3667)+1 mM Sodium Pyruvate (Gibco, #11360-039)+50 μM 2-mercaptoethanol (Gibco, #31350-010) and lx Pen-Strep (Life Technologies, #15140122) medium at density of 2 Mio/ml for 3 hours in 5% CO2, 37° C. and 95% humidity. For coating of plates, […] or PBS++ with CD3 antibody (concentration depending on donor and determined by CD3 titrations) was added 100 μl/well to Poly-D Lysine coated 96-well plates. Plates were sealed and incubated at room temperature for 3 hours on a table-top rocking platform. After incubation, plates were washed once with PBS−− and filled with 40 μl/well culture medium only. Compounds were then added (see next section) to medium only plates. After 3 hours of culturing the T-cells, cells were filtered through a cell strainer (Miltenyi Biotech, #130-041-407), counted again and concentration was adjusted to 1.25 Mio/ml.
Cells were then seeded 80 μl/well to the 40 μl/well including dispensed compounds according to plate layout. By adding cells, compounds were further diluted 1:3, and resulting in 100k cells/120 μl/well. After 24 hours 40 μl of supernatant was collected carefully from the top while not disturbing the cells and transferred into a round bottom 96 well plate. Collected and frozen supernatant was used for detection of IL2 using the IL-2 Human ProQuantum Immunoassay Kit (Invitrogen) or using the Human IL-2 ELISA Kit (Thermo Fisher).
Compounds were added in a 5 or 6 pt dose response with the Tecan D300e Digital Dispenser, all conditions 3 times more concentrated than the end-concentration, since cells are added afterwards (80 μl cells to 40 μl prepared medium with treatment). The DR was starting at 20 μM or 10 μM final top concentration and a dilution factor of 3.333. The positive control was the reference compound A1 that was added in a dose response as well, additionally to 3 wells of only 20 μM representing the positive stimulator control. All wells were normalized with DMSO to a final concentration of 0.6% (0.2% end-concentration).
The immunoassay is done following the manufacturer's manual (Invitrogen, #A35603).
Additional information: For the immunoassay, MicroAmp™ EnduraPlate™ Optical 384-Well plates are used. Frozen supernatant is thawed and centrifuged for 5 minutes at 1000×g, both steps at 4° C. After centrifugation, required sample amount is taken from the top, and in a separate LightCycler V-bottom plate (working plate) diluted with assay dilution buffer, dilution factor depending on the PBS or CD3 condition but at least 1:3. IL-2 standard and blanks are prepared in the same V-bottom plate, standard with a range of […] (extended version). After preparation, […] of sample dilutions or standard/blanks are transferred to the optical 384-well plate (assay plate) and the 10 μl reaction protocol is being followed. For measurement, the QuantStudio 12K Flex system is used. Raw data is extracted and IL-2 concentrations are calculated with the Thermo Fisher online app (apps.thermofisher.com/apps/proquantum).
ELISA is done following the manufacturer's manual (Thermo Fisher Scientific, #88-7025-88).
Additional information: For the ELISA Nunc MaxiSorp 96 well plates are used. Frozen supernatant is thawed and centrifuged for 5 minutes at 1000×g, both steps at 4° C. After that, required sample amount is taken from the top, and in a separate V-bottom plate diluted with ELISA diluent, dilution factor depending on the PBS or CD3 condition. […]

T1 sequence (P23743 whole entry): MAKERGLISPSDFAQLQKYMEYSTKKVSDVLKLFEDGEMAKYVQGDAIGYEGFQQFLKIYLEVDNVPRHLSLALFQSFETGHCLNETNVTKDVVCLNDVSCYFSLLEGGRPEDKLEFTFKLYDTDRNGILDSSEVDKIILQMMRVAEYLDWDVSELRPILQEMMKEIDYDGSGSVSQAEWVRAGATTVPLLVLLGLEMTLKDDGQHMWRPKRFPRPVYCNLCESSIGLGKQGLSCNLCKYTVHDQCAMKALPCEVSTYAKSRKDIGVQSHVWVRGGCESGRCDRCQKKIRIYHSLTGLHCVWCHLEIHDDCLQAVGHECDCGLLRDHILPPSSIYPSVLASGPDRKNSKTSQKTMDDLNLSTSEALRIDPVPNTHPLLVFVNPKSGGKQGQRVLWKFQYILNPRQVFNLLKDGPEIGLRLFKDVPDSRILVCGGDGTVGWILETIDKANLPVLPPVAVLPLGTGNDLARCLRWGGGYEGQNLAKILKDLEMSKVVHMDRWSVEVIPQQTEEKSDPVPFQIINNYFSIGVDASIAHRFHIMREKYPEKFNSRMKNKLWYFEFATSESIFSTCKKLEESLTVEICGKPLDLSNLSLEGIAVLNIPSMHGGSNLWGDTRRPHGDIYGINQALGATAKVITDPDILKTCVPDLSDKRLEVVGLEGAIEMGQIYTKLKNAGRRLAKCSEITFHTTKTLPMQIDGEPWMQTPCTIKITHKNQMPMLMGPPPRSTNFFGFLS

N[C@@H]1CC(F)(F)c2cc(F)c(-c3nnc(N4CCC(F)(F)C4)o3)cc2N(Cc2ccc(-n3cnc(C(F)(F)F)n3)cc2)C1=O (single isomer, unassigned) [Example 22]
IC50 [1]: 10600 nM
EC50 [2]: > 2730 nM
Emax [2]: 31%

CC(C)(c1nnc(-c2cc3c(cc2F)C(F)(F)C[C@@H](N)C(=O)N3Cc2ccc(-n3cnc(C(F)(F)F)n3)cc2)o1)S(C)(=O)=O (single isomer, unassigned) [Example 23]
IC50 [1]: 14100 nM
EC50 [2]: > 2730 nM
Emax [2]: 42%

CC(C)(C#N)c1nnc(-c2cc3c(cc2F)C(F)(F)C[C@@H](N)C(=O)N3Cc2ccc(-c3ccc(OC(F)(F)F)cn3)cc2)o1 (single isomer, unassigned) [Example 24]
IC50 [1]: 1860 nM
EC50 [2]: 76.8 nM
Emax [2]: 140%

CC(C)(c1nnc(-c2cc3c(cc2F)C(F)(F)C[C@@H](N)C(=O)N3Cc2ccc(-c3ccc(OC(F)(F)F)cn3)cc2)o1)S(C)(=O)=O (single isomer, unassigned) [Example 26]
IC50 [1]: 425 nM
EC50 [2]: 302 nM
Emax [2]: 97%

CC(C)(C#N)c1nnc(-c2cc3c(cc2F)C(F)(F)C[C@@H](N)C(=O)N3Cc2ccc(-c3cc(C(F)(F)F)ccn3)cc2)o1 (single isomer, unassigned) [Example 27]
IC50 [1]: 24600 nM
EC50 [2]: > 2730 nM
Emax [2]: 181%

CC(C)(C#N)c1nnc(-c2cc3c(cc2F)C(F)(F)C[C@@H](N)C(=O)N3Cc2ccc(-c3ccc(C(F)(F)F)cc3)nc2)o1 (single isomer, unassigned) [Example 28]
IC50 [1]: 31700 nM
EC50 [2]: 678 nM
Emax [2]: 73%

CC(C)(c1nnc(-c2cc3c(cc2F)C(F)(F)C[C@@H](N)C(=O)N3Cc2ccc(-n3cc(C(F)(F)F)cn3)cc2)o1)S(C)(=O)=O (single isomer, unassigned) [Example 29]
IC50 [1]: 551 nM
EC50 [2]: > 10000 nM
Emax [2]: 48%

CC(C)(C#N)c1nnc(-c2cc3c(cc2F)C(F)(F)C[C@@H](N)C(=O)N3Cc2ccc(-n3ccc(C(F)(F)F)n3)cc2)o1 (single isomer, unassigned) [Example 30]
IC50 [1]: 26400 nM
EC50 [2]: 2610 nM
Emax [2]: 77%

CC(C)(c1nnc(-c2cc3c(cc2F)C(F)(F)C[C@@H](N)C(=O)N3Cc2ccc(-c3ccc(C(F)(F)F)cc3)cc2)o1)S(C)(=O)=O (single isomer, unassigned) [Example 32]
IC50 [1]: 51300 nM
EC50 [2]: 600 nM
Emax [2]: 27%

COCCN1CC(c2nnc(-c3cc4c(cc3F)C(F)(F)C[C@@H](N)C(=O)N4Cc3ccc(-c4ccc(C(F)(F)F)cn4)cc3)o2)CC(F)(F)C1 (single isomer, unassigned) [Example 34]
IC50 [1]: > 60000 nM
EC50 [2]: > 10000 nM
Emax [2]: 31%

COC(=O)N1CC2CC(c3nnc(-c4cc5c(cc4F)C(F)(F)C[C@@H](N)C(=O)N5Cc4ccc(-c5ccc(C(F)(F)F)cn5)cc4)o3)(C2)C1 (single isomer, unassigned) [Example 35]
IC50 [1]: > 19000 nM
EC50 [2]: 216 nM
Emax [2]: 94%

COC(=O)N1CC2CC(c3nnc(-c4cc5c(cc4F)C(F)(F)C[C@@H](N)C(=O)N5Cc4ccc(Cl)cc4)o3)(C2)C1 (single isomer, unassigned) [Example 36]
IC50 [1]: 55200 nM
EC50 [2]: 856 nM
Emax [2]: 53%

CC(F)(F)c1ccc(-c2ccc(CN3C(=O)[C@H](N)CC(F)(F)c4cc(F)c(-c5nnc(C(C)(C)C#N)o5)cc43)cc2)nc1 (single isomer, unassigned) [Example 37]
IC50 [1]: 11200 nM
EC50 [2]: 457 nM
Emax [2]: 136%

COc1ccc(-c2ccc(CN3C(=O)[C@H](N)CC(F)(F)c4cc(F)c(-c5nnc(C(C)(C)C#N)o5)cc43)cc2)nc1 (single isomer, unassigned) [Example 38]
IC50 [1]: ≥ 60000 nM
EC50 [2]: 2080 nM
Emax [2]: 105%

COc1ccc(-c2ccc(CN3C(=O)[C@H](N)CC(F)(F)c4cc(F)c(-c5nnc(C(C)(C)S(C)(=O)=O)o5)cc43)cc2)nc1 (single isomer, unassigned) [Example 39]
IC50 [1]: 44400 nM
EC50 [2]: > 10000 nM
Emax [2]: 35%

Reference: US20250236614A1, “BICYCLIC TETRAHYDROAZEPINE DERIVATIVES” (Hoffmann-La Roche Inc., priority 2022, published 2025)
